Source: ChEMBL document CHEMBL3137667, “[Drug-induced liver injury; fourteenth updated edition of the bibliographic database of liver injuries and related drugs]” (Gastroenterol Clin Biol, 2004)

Key:
[1] = human
[2] = human; remark: listed apart in the source
[3] = Highest frequency of moderate liver toxicity observed during clinical trials, expressed as a percentage. [column '% BIOL' in source]; conditions: human
[4] = human; remark: listed apart in the source
[5] = human, serum, 4383 h
[6] = human; remark: listed apart in the source
[7] = human; remark: listed apart in the source
[8] = human; remark: listed apart in the source
[9] = Highest frequency of acute liver toxicity observed during clinical trials, expressed as a percentage. [column '% AIGUE' in source]; conditions: human
[10] = human; remark: listed apart in the source
[11] = human; remark: listed apart in the source
[12] = human, serum
[13] = human, serum; remark: listed apart in the source
[14] = human; remark: listed apart in the source
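Wherever Hepatotoxicity (association with vascular disease) is given: count of indexed literature references reporting vascular liver injury in humans, e.g. peliosis hepatitis, hepatic veno-occlusive disease or Budd-Chiari syndrome.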
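Wherever Hepatotoxicity (benign tumour) is given: value is a count of indexed literature references citing a benign tumour confirmed by histopathology.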
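Wherever Hepatotoxicity (choleostasis) is given: human cholestatic liver injury, shown by histopathology or by peak ALT or AST elevation over alkaline phosphatase ratio below 2, value counts indexed literature reports.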
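Wherever Hepatotoxicity (chronic liver disease) is given: chronic liver injury confirmed by histopathology or persistently raised serum aminotransferase activity beyond 6 months, value given as the count of indexed literature references.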
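Wherever Hepatotoxicity (cirrhosis) is given: value is a count of indexed literature references reporting cirrhosis confirmed by histopathology.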
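Wherever Hepatotoxicity (cytolytic) is given: human cytolytic liver injury, shown by histopathology or by a ratio above 5 of peak ALT or AST elevation to alkaline phosphatase elevation, value counts indexed references.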
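Wherever Hepatotoxicity (granulomatous hepatitis) is given: value is a count of indexed literature references reporting granulomatous liver disease confirmed by histopathology.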
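Wherever Hepatotoxicity (malignant tumour) is given: malignant tumour confirmed by histopathology, value gives the count of indexed literature references reporting it.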
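Wherever Hepatotoxicity (severe hepatitis) is given: human clinical data: severe hepatitis, meaning potentially life-threatening liver failure or clinically observed cases, the value counts how many indexed literature references report it.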
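Wherever Hepatotoxicity (steatosis) is given: steatosis confirmed by histopathology, value is the count of indexed references.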

Compound | Hepatotoxicity (association with vascular disease) [1] | Hepatotoxicity (benign tumour) [2] | Hepatotoxicity (moderate) [3] | Hepatotoxicity (cytolytic) [4] | Hepatotoxicity (chronic liver disease) [5] | Hepatotoxicity (choleostasis) [6] | Hepatotoxicity (severe hepatitis) [7] | Hepatotoxicity (malignant tumour) [8] | Hepatotoxicity (acute) [9] | Hepatotoxicity (steatosis) [10] | Hepatotoxicity (cirrhosis) [11] | Hepatotoxicity (acute) [12] | Hepatotoxicity (moderate) [13] | Hepatotoxicity (granulomatous hepatitis) [14]
EPOETIN ALFA | 0 | 0 | 20% | 0 | 0 | 0 | 0 | 0 | 0% | 0 | 0 | 0 | 4 | 0
COc1ccc(/C=C/C(=O)Nc2ccccc2C(=O)O)cc1OC | 0 | 0 | 7.5% | 0 | 0 | 0 | 0 | 0 | 0% | 0 | 0 | 1 | 6 | 0
CN1C(CCl)Nc2cc(Cl)c(S(N)(=O)=O)cc2S1(=O)=O (stereo not drawn) [METHYCLOTHIAZIDE] | 0 | 0 | 0% | 0 | 0 | 0 | 0 | 0 | 0% | 0 | 0 | 0 | 1 | 0
O=C(O)c1ccccc1Nc1cccc(C(F)(F)F)c1 [FLUFENAMIC ACID] | 0 | 0 | 0% | 0 | 0 | 0 | 0 | 0 | 0% | 0 | 0 | 0 | 1 | 0
NCC[C@H](O)C(=O)N[C@@H]1C[C@H](N)[C@@H](O[C@H]2O[C@H](CN)CC[C@H]2N)[C@H](O)[C@H]1O[C@H]1O[C@H](CO)[C@@H](O)[C@H](N)[C@H]1O [ARBEKACIN] | 0 | 0 | 27.3% | 0 | 0 | 0 | 0 | 0 | 0% | 0 | 0 | 0 | 30 | 0
CC(C)(Sc1cc(C(C)(C)C)c(O)c(C(C)(C)C)c1)Sc1cc(C(C)(C)C)c(O)c(C(C)(C)C)c1 [PROBUCOL] | 0 | 0 | 0% | 0 | 0 | 0 | 0 | 0 | 0% | 0 | 0 | 0 | 2 | 0
CO[C@@H](/C(C)=C/C=C/C(C)=C/c1coc(C)n1)[C@@H](C)[C@@H]1C[C@H](O)[C@@]2(C)O[C@@H]2/C=C/[C@@H](C)[C@H]2C[C@H](CC(=O)O2)C[C@@H]2O[C@H]2C(=O)O1 [RHIZOXIN] | 0 | 0 | 7.3% | 0 | 0 | 0 | 0 | 0 | 0% | 0 | 0 | 0 | 1 | 0
